The values below come from paper PMC2909000 (Current topics in medicinal chemistry, 2009).

Like-named read-outs stand apart in the source and are kept apart here.

Data set [1] concerns two component NS2B-NS3 Proteinase of West Nile Virus. The conditions noted are these: another MLSCN Center; ref xxix, xxx; cited from earlier work.
Data set [2] is described as follows: reaction of 15a in the presence of cysteine, LC/MS monitoring for products. The data set is classed as physicochemical.
A further data set has as its target cathepsin L (Homo sapiens, UniProt P07711). The data set is classed as biochemical. The conditions noted are these: stoichiometric amounts of enzyme.
The subject of data set [3] is bovine aortic endothelial cells. The conditions noted are these: ref xl; cited from earlier work.
The next data set deals with Leishmania major. The conditions noted are these: read-out: IC50, Leishmania major; cellular model of infection; ref xl; cited from earlier work.
In a further data set the test system is Plasmodium falciparum. The conditions noted are these: read-out: IC50, Plasmodium falciparum; cellular model of infection; ref xl; cited from earlier work.
A further data set has as its system zebrafish. The conditions noted are these: cited from earlier work.
In a further data set the test system is human liver cathepsin L. The conditions noted are these: cited from earlier work.
The next data set concerns cathepsin B. The conditions noted are these: relative to cathepsin L.
A further data set deals with SARS-CoV. The conditions noted are these: cited from earlier work.
For the next data set, the system named is Ebola virus. The conditions noted are these: cited from earlier work.

Sequence of cathepsin L (P07711 114-333): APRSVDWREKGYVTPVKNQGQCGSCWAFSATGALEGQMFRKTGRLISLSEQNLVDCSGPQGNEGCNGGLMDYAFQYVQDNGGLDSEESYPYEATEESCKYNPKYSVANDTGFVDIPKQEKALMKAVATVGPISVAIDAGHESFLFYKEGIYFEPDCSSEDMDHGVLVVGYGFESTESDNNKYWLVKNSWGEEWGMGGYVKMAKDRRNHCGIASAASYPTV

On to `COc1ccc(S(=O)(=O)n2nc(OC(=O)c3ccccc3)cc2N)cc1` [CID 655490], for which the “mode of inhibition of NS2B-NS3 Proteinase” value in data set [1] is on record as “slow-binding, reversible, non-competitive inhibitor”.
Take `CCc1ccccc1NC(=O)CSC(=O)NNC(=O)[C@H](Cc1c[nH]c2ccccc12)NC(=O)OC(C)(C)C` [Compound 15a]: the “products detected in the presence of cysteine” value in [2] is “no detectable products”. In addition, the “products of hydrolysis (20 and 21) detected by LC/MS” value on cathepsin L was “No products were detected”. The “Toxicity (bovine aortic endothelial cells)” value in data set [3] was 16 µM. For the same compound, the IC50 with Leishmania major was 12500 nM; in the data set with Plasmodium falciparum it was 15400 nM; in the data set with human liver cathepsin L (cathepsin L, no preincubation stated, ref xl), 56 nM; in the data set with human liver cathepsin L (read-out: Cathepsin L inhibition IC50, analogs of 15a, ref xlii), 56 nM; with human liver cathepsin L (read-out: IC50(4h preincubation), cathepsin L, 4h preincubation, ref xl), 1 nM. Further, the “Toxicity (zebrafish)” value with zebrafish (ref xl) is over 100 µM. For the same compound, at human liver cathepsin L (cathepsin L, ref xl), the Ki was 0.89 nM. For the same compound, the koff in the data set on human liver cathepsin L (cathepsin L, ref xl) is 2.2e-05 s⁻¹. The “kinetic characterization of inhibition” value with human liver cathepsin L (ref xl) is on record as “slowly reversible inhibition”. Also, in the data set with cathepsin B (ref xl), the “Selectivity vs cathepsin B” value is given as 45-fold.
`CC(C)(C)OC(=O)N[C@@H](Cc1c[nH]c2ccccc12)C(=O)NNC(=O)OCC(=O)N1CCCc2ccccc21` [Compound 19]: the “concentration preventing entry of SARS-CoV into cells” value in the data set on SARS-CoV is “sub-micromolar”. The “toxicity in zebrafish whole organism assay” value in the data set with zebrafish (no toxicity detected up to this concentration, ref xxx) is over 100 µM. In addition, the IC50 was 0.4 nM in the data set on human liver cathepsin L (read-out: IC50 against cathepsin L with a 4 hour pre-incubation, 4 hour pre-incubation, ref xxx) and 7 nM in the data set on human liver cathepsin L (read-out: IC50 against cathepsin L, no pre-incubation, ref xxx). Besides, the “cathepsin L activity of analogs with modified C2 carbonyl reactivity” value in the data set with human liver cathepsin L (ref xxxviii) is on record as “as potent as the thiocarbazate”. Further, the “concentration preventing entry of Ebola virus into cells” value with Ebola virus is listed as “sub-micromolar”. Further, the “selectivity compared to cathepsin B” value with cathepsin B (ref xxx) is reported as over 700 fold.

By IC50 is commonly meant the concentration that gives 50% inhibition. What is called Ki is a dissociation constant, usually derived from enzyme kinetics or from competition with a known ligand. What is called koff is a measure of how fast the partners let go of each other.
